Test results reported in article doi:10.1101/2024.12.30.630793 (bioRxiv, 2024).
Read-outs that look alike come from different tables or passages of the source.

Legend:
Acb4 (SPO1 Acb4) = biological target: T1, Acb4 (SPO1 Acb4) (Bacillus phage SPO1, UniProt B6V2Y3); experiment: Electrophoretic mobility shift assay: titration of recombinant Acb4 with 20 nM alpha-32P-radiolabelled cyclic dinucleotide, 50 mM Tris-HCl pH 7.5, 5 mM MgCl2, 10 mM KCl, 1 mM TCEP, 30 min on ice, nondenaturing 6% PAGE, fraction bound fitted to a single binding model.; conditions: n = 2
T1 construct: gene 1.3; recombinant from E. coli BL21(DE3)-RIL, N-terminal 6xHis-SUMO2 fusion, tag cleaved with SENP2; 96 amino acids, homotetramer
T1 sequence (B6V2Y3 1-96): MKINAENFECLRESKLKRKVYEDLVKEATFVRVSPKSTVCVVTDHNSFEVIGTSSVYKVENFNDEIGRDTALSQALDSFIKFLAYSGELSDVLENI

Bacillus phage SPO1 Acb4 = type: binding; conditions: for Kd: fraction bound fit to a single binding model, n = 2
[1] = biological target: Bacillus phage SPO1 anti-CBASS 4 (Acb4) (Bacillus phage SPO1); experiment: SEC-MALS; recombinant apo SPO1 Acb4 in solution; complex migrates at ~42.3 kDa

| Molecule | Kd (Acb4 (SPO1 Acb4)) | interaction with Acb4 (EMSA) (Bacillus phage SPO1 Acb4) | Kd (Bacillus phage SPO1 Acb4) | other results |
| --- | --- | --- | --- | --- |
| Nc1ncnc2c1ncn2[C@@H]1O[C@@H]2COP(=O)(O)O[C@@H]3[C@H](O)[C@@H](COP(=O)(O)O[C@H]2[C@H]1O)O[C@H]3n1ccc(=O)[nH]c1=O [2′3′-cUA, 2′3′-cyclic UMP-AMP, c[U(2′,5′)pA(3′,5′)p]] | 641 nM | – | – | – |
| Nc1ncnc2c1ncn2[C@@H]1O[C@@H]2COP(=O)(O)O[C@@H]3[C@H](O)[C@@H](COP(=O)(O)O[C@H]2[C@H]1O)O[C@H]3n1ccc(=O)[nH]c1=O [2′3′-cUA] | – | recognizes | 641 nM | – |
| Nc1ncnc2c1ncn2[C@@H]1O[C@@H]2COP(=O)(O)O[C@H]3[C@@H](O)[C@H](n4cnc5c(N)ncnc54)O[C@@H]3COP(=O)(O)O[C@H]2[C@H]1O [3′3′-cAA, 3′3′-c-di-AMP] | – | No interaction was detected | – | – |
| Nc1nc2c(ncn2[C@@H]2O[C@@H]3COP(=O)(O)O[C@H]4[C@@H](O)[C@H](n5cnc6c(N)ncnc65)O[C@@H]4COP(=O)(O)O[C@H]3[C@H]2O)c(=O)[nH]1 [3′3′-cGAMP, 3′3′-cyclic GMP-AMP, c[G(3′,5′)pA(3′,5′)p]] | 157 nM | – | – | – |
| Nc1nc2c(ncn2[C@@H]2O[C@@H]3COP(=O)(O)O[C@H]4[C@@H](O)[C@H](n5cnc6c(N)ncnc65)O[C@@H]4COP(=O)(O)O[C@H]3[C@H]2O)c(=O)[nH]1 [3′3′-cGAMP, 3′3′-cyclic GMP-AMP] | – | – | ~157 nM | Kd (Bacillus phage SPO1 Acb4; listed as 3'3'-cGAMP): 157 nM |
| Nc1nc2c(ncn2[C@@H]2O[C@@H]3COP(=O)(O)O[C@H]4[C@@H](O)[C@H](n5cnc6c(=O)[nH]c(N)nc65)O[C@@H]4COP(=O)(O)O[C@H]3[C@H]2O)c(=O)[nH]1 [3′3′-cGG, 3′3′-c-di-GMP] | – | No interaction was detected | – | – |
| Nc1ncnc2c1ncn2[C@@H]1O[C@@H]2COP(=O)(O)O[C@H]3[C@@H](O)[C@H](n4ccc(=O)[nH]c4=O)O[C@@H]3COP(=O)(O)O[C@H]2[C@H]1O [3′3′-cUA, 3′3′-cyclic UMP-AMP, c[U(3′,5′)pA(3′,5′)p]] | 262 nM | – | – | – |
| Nc1ncnc2c1ncn2[C@@H]1O[C@@H]2COP(=O)(O)O[C@H]3[C@@H](O)[C@H](n4ccc(=O)[nH]c4=O)O[C@@H]3COP(=O)(O)O[C@H]2[C@H]1O [3′3′-cUA] | – | recognizes | 262 nM | – |
| Bacillus phage SPO1 anti-CBASS 4 (Acb4) (natural protein) | – | – | – | stoichiometry N [1]: 4 |
